The source of these data is ChEMBL document CHEMBL1201862, “PubChem BioAssay data set” (2004).

Some test systems named below: SN12C; HCC 2998; NCI-H226; IGROV-1; UACC-257; CAKI-1; NCI-H460; SR; HCT-15; BT-549; SNB-19; SK-MEL-5; DU-145; UO-31; M14; OVCAR-5; OVCAR-4; CCRF-CEM; SW-620; A498.
Assay in all cases: inhibition of tumour cell growth, NCI panel, 48 h

Molecules are shown by their SMILES.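 Method: 48-hour compound exposure of cells in 96-well plates, five concentrations, linear interpolation of endpoints. GI50 = concentration required for 50% inhibition of growth.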 The source made the active and inactive calls. Cut-off read from the data, not from the text of the source: active = GI50 up to about 1.1 µM and inactive = higher.

Take `N#CCc1nc(-c2cc3ccccc3oc2=O)cs1`: the GI50 is > 100 µM (inactive) in the experiment with SN12C; > 100 µM (inactive) in the experiment on HCC 2998; 36.8 µM (inactive) in the experiment on NCI-H226; 40.6 µM (inactive) with IGROV-1; 27.1 µM (inactive) in the experiment with UACC-257; > 100 µM (inactive) in the experiment with CAKI-1. Also, the GI50 with NCI-H460 was 75.2 µM (inactive); with SR, 43.6 µM (inactive); in the experiment on HCT-15, 35.8 µM; in the experiment on BT-549, 17.9 µM (inactive); in the experiment with SNB-19, > 100 µM (inactive); in the experiment on SK-MEL-5, 26.4 µM (inactive). The GI50 was > 100 µM (inactive) in the experiment on DU-145; 40.4 µM (inactive) in the experiment with UO-31; 35.6 µM (inactive) with M14; > 100 µM (inactive) with OVCAR-5; 44.1 µM (inactive) with OVCAR-4; 30.5 µM (inactive) with CCRF-CEM. For the same molecule, the GI50 in the experiment on SW-620 was > 100 µM (inactive).
Turning to `CN(C(=O)c1cccs1)C(=S)N1CCN(c2ccccc2)CC1`, the GI50 with SN12C, in the experiment with HCC 2998, in the experiment with NCI-H226, with IGROV-1, in the experiment on UACC-257 and in the experiment on NCI-H460 was > 100 µM (inactive) each time. The GI50 in the experiment with SR was 54.2 µM (inactive); with HCT-15, over 100 µM; in the experiment with BT-549, > 100 µM (inactive); with SNB-19, > 100 µM (inactive); in the experiment on SK-MEL-5, > 100 µM (inactive); in the experiment on DU-145, > 100 µM (inactive). For the same molecule, the GI50 in the experiment with UO-31, with M14, with OVCAR-5, with OVCAR-4, in the experiment on CCRF-CEM and in the experiment with SW-620 was > 100 µM (inactive) throughout.
For the molecule `COC(=O)[C@@H]1C[C@]2(CC=C(C)C)c3ccccc3N(S(=O)(=O)c3ccccc3)[C@@H]2N1C(=O)OC`, the GI50 is 40.6 µM (inactive) with SN12C; 10.6 µM (inactive) in the experiment with HCC 2998; 19 µM (inactive) in the experiment on NCI-H226; 10.7 µM (inactive) in the experiment on UACC-257; 27.2 µM (inactive) in the experiment on CAKI-1; 14.1 µM (inactive) in the experiment on NCI-H460. Moreover, the GI50 is 5.33 µM (inactive) in the experiment on SR; 10.4 µM with HCT-15; 32.2 µM (inactive) in the experiment on BT-549; 34.1 µM (inactive) with SNB-19; 11.6 µM (inactive) in the experiment on SK-MEL-5; > 100 µM (inactive) in the experiment with DU-145. The GI50 in the experiment with UO-31 was 28.8 µM (inactive); with OVCAR-5, > 100 µM (inactive); in the experiment on OVCAR-4, 18.1 µM (inactive); in the experiment with CCRF-CEM it was 27.9 µM (inactive); in the experiment on SW-620, 40.6 µM (inactive).
Turning to `OCC1OC(n2cnc3c(Cl)nc(Nc4ccccc4)nc32)CC1O` (stereo unspecified), the GI50 in the experiment with SN12C was > 100 µM (inactive); in the experiment on HCC 2998, 17.8 µM (inactive); with NCI-H226, > 100 µM (inactive); with IGROV-1 it was 25.4 µM (inactive); in the experiment with UACC-257, 59.3 µM (inactive); with CAKI-1, 1.77 µM (inactive). Moreover, the GI50 in the experiment on NCI-H460 was 49.9 µM (inactive); with HCT-15, 20.8 µM; in the experiment on BT-549, 35.6 µM (inactive); in the experiment with A498 it was 70 µM (inactive); with SNB-19, > 100 µM (inactive); in the experiment on SK-MEL-5, > 100 µM (inactive). The GI50 with DU-145 is > 100 µM (inactive); in the experiment on UO-31 it was 18 µM (inactive); in the experiment on M14, 60.1 µM (inactive); with OVCAR-5, > 100 µM (inactive); in the experiment with OVCAR-4, 25.4 µM (inactive); in the experiment with CCRF-CEM it was 26.1 µM (inactive). Further, in the experiment on SW-620, the GI50 was > 100 µM (inactive).
As for `Cn1c(=O)sc2cc(C(=S)N3CCC(Cc4ccccc4)CC3)ccc21`, the GI50 was > 100 µM (inactive) in the experiment on SN12C; 15.3 µM (inactive) with NCI-H226; 33.8 µM (inactive) in the experiment on IGROV-1; 38.3 µM (inactive) in the experiment on UACC-257; 61.5 µM (inactive) in the experiment with CAKI-1; 27.8 µM (inactive) in the experiment on NCI-H460. Besides, the GI50 with SR is 17.7 µM (inactive); in the experiment with HCT-15 it was 99.5 µM; in the experiment with BT-549 it was 30.3 µM (inactive); in the experiment with A498, > 100 µM (inactive); in the experiment with SNB-19 it was > 100 µM (inactive); in the experiment with SK-MEL-5, 26.9 µM (inactive). Further, the GI50 with DU-145 was 84.5 µM (inactive); with M14, 33.3 µM (inactive); in the experiment on OVCAR-5, > 100 µM (inactive); with CCRF-CEM, 25.2 µM (inactive); in the experiment on SW-620, > 100 µM (inactive).
For `CC(C)[C@H](O)C(=O)N[C@H]1Cc2ccc3c(c2)[C@]24C5=C(N=C(O5)[C@H](C(C)C)NC1=O)c1nc(Cl)c(o1)-c1c(Cl)[nH]c5cccc(c15)-c1cccc2c1N[C@H]4O3`, the GI50 in the experiment with HCC 2998 was 0.00879 µM (active); in the experiment on NCI-H226, 0.00346 µM (active); in the experiment with IGROV-1, 0.00342 µM (active); in the experiment on UACC-257, 0.0229 µM (active); in the experiment on CAKI-1, 0.0968 µM (active); in the experiment on NCI-H460 it was 0.0119 µM (active). Besides, the GI50 in the experiment on HCT-15 was 0.0392 µM; with BT-549, 0.00863 µM (active); in the experiment with A498, 1.27 µM (inactive); with SNB-19, 0.00644 µM (active); in the experiment on SK-MEL-5, 0.0103 µM (active); in the experiment with DU-145 it was 0.00524 µM (active). The GI50 in the experiment on UO-31 was 0.0457 µM (active); with M14, 0.0311 µM (active); with OVCAR-5, 0.0242 µM (active); in the experiment on OVCAR-4 it was 1.57 µM (inactive); with CCRF-CEM, 0.00103 µM (active); with SW-620, 0.00671 µM (active).
Turning to `COC(=O)/C=C(\S/C(=C(/c1ccccc1)n1cc(C(=O)OC)c(C(=O)OC)n1)c1ccccc1)C(=O)OC`, the GI50 in the experiment with SN12C is 16.5 µM (inactive); in the experiment on NCI-H226, 89.1 µM (inactive); in the experiment on IGROV-1 it was 17.7 µM (inactive); in the experiment with UACC-257, 7.33 µM (inactive); with CAKI-1, 2.48 µM (inactive); in the experiment on NCI-H460, 30.8 µM (inactive). Also, the GI50 in the experiment on SR is 11.6 µM (inactive); in the experiment on HCT-15, 11.6 µM; in the experiment with BT-549, 38.5 µM (inactive); in the experiment with A498 it was > 100 µM (inactive); in the experiment on SNB-19 it was 19.5 µM (inactive); in the experiment on SK-MEL-5, 19.3 µM (inactive). For the same molecule, the GI50 was 14.7 µM (inactive) in the experiment on DU-145; 2.24 µM (inactive) in the experiment with UO-31; 12.9 µM (inactive) with M14; 18.7 µM (inactive) in the experiment on OVCAR-5; 13 µM (inactive) in the experiment on OVCAR-4; 3.12 µM (inactive) in the experiment on CCRF-CEM. Moreover, the GI50 with SW-620 was 2.37 µM (inactive).
Consider `CN(CCN(C)Cc1ccc(Cl)c(Cl)c1)CCN1CCCC1`, for which the GI50 in the experiment on SN12C is > 48 µM (inactive); in the experiment on HCC 2998, 14.5 µM (inactive); with NCI-H226 it was 39.1 µM (inactive); in the experiment on IGROV-1, 15.8 µM (inactive); in the experiment with UACC-257 it was 9.16 µM (inactive); in the experiment with CAKI-1, 36 µM (inactive). The GI50 in the experiment with NCI-H460 was 27.5 µM (inactive); in the experiment on HCT-15, 37.2 µM; with BT-549, 65.6 µM (inactive); in the experiment on A498, 16.1 µM (inactive); with SNB-19, > 49.3 µM (inactive); in the experiment on SK-MEL-5, 14.9 µM (inactive). The GI50 was 61.2 µM (inactive) with DU-145; 11.6 µM (inactive) in the experiment with UO-31; 23.2 µM (inactive) in the experiment on M14; 39.3 µM (inactive) in the experiment with OVCAR-5; 52.5 µM (inactive) in the experiment with OVCAR-4; 3.72 µM (inactive) with CCRF-CEM. Further, the GI50 with SW-620 is 24.3 µM (inactive).
Take `O=[N+]([O-])c1ccc2nnnn2c1`: the GI50 was 19.8 µM (inactive) with SN12C; 12.3 µM (inactive) in the experiment on NCI-H226; 34.3 µM (inactive) in the experiment on IGROV-1; 27.8 µM (inactive) in the experiment with UACC-257; 17.6 µM (inactive) with CAKI-1; 31.6 µM (inactive) with NCI-H460. Moreover, the GI50 in the experiment on SR is 4.76 µM (inactive); in the experiment with HCT-15 it was 8.22 µM; with BT-549, 23.3 µM (inactive); in the experiment with SNB-19, 93.8 µM (inactive); with SK-MEL-5, 18 µM (inactive); in the experiment on DU-145, 37.2 µM (inactive). Also, the GI50 in the experiment on UO-31 was 7.89 µM (inactive); with M14 it was 13.8 µM (inactive); in the experiment with OVCAR-5, 41.4 µM (inactive); with OVCAR-4 it was 78.7 µM (inactive); with SW-620 it was 12.7 µM (inactive).
Consider `Cc1n[nH]c(=O)c2c3c([nH]c12)-c1ccccc1C3`, for which the GI50 with SN12C is > 100 µM (inactive); in the experiment on NCI-H226, 51.1 µM (inactive); in the experiment on IGROV-1 it was 0.0716 µM (active); in the experiment on UACC-257 it was 19.5 µM (inactive); in the experiment on CAKI-1 it was > 100 µM (inactive); with NCI-H460, > 100 µM (inactive). For the same molecule, the GI50 was 82.8 µM (inactive) in the experiment on SR; over 100 µM in the experiment with HCT-15; > 100 µM (inactive) with BT-549; > 100 µM (inactive) with A498; > 100 µM (inactive) in the experiment with SNB-19; > 100 µM (inactive) with SK-MEL-5. The GI50 with DU-145, with UO-31, in the experiment with M14, in the experiment on OVCAR-5, in the experiment on OVCAR-4 and in the experiment on CCRF-CEM was > 100 µM (inactive) each time. Further, the GI50 with SW-620 was > 100 µM (inactive).
In the case of `Oc1ccc(CNCc2ccccc2)c2cccnc12`, the GI50 with SN12C is 0.0601 µM (active); in the experiment with NCI-H226 it was 5 µM (inactive); with IGROV-1, 0.292 µM (active); in the experiment on UACC-257, 0.262 µM (active); in the experiment on CAKI-1, 0.48 µM (active); in the experiment with NCI-H460, 0.034 µM (active). In addition, the GI50 in the experiment on SR is 0.182 µM (active); in the experiment on HCT-15, 0.0628 µM; in the experiment with BT-549 it was 0.0703 µM (active); in the experiment with A498, 0.354 µM (active); with SNB-19, 0.211 µM (active); with SK-MEL-5 it was 0.191 µM (active). The GI50 was 0.0452 µM (active) with DU-145; 0.316 µM (active) with UO-31; 0.27 µM (active) in the experiment on M14; 1.22 µM (inactive) in the experiment on OVCAR-5; 0.421 µM (active) in the experiment with OVCAR-4; 0.0436 µM (active) in the experiment on CCRF-CEM. The GI50 in the experiment on SW-620 is 0.356 µM (active).
